Source: patent publication US9227971B2, “Pyrazolo[1,5-a]pyrimidine compounds as mTOR inhibitors” (Merck Sharp & Dohme Corp., priority 2010, dated 2016)
Like-named read-outs stand apart in the source and are kept apart here.

Tests used:
[1] = test system: phosphorylated 4E-BP1 Thr37/46 (p4E-BP1 Thr37/46), mTORC1 activity, PC3 cells; test: mTOR target engagement assay, immunofluorescent cell-based, p4E-BP1 Thr37/46 readout (mTORC1 activity); details: read-out: p4E-BP1 Thr37/46 IC50
Outline: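 Seed PC3 cells overnight; treat with compound dilutions for ninety minutes at 37° C; fix with glyoxal and block; stain with anti-p4E-BP1 Thr37/46 overnight at 4° C, then fluorescent secondary; read fluorescence and fit IC50 against DMSO-only controls.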

[2] = test system: phosphorylated AKT Ser473 (pAKT S473), mTORC2 activity, PC3 cells; test: mTOR target engagement assay, immunofluorescent cell-based, pAKT S473 readout (mTORC2 activity)
Outline: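 After blocking, cells were stained overnight at 4 °C with anti-pAKT S473 antibody, then a fluorescent secondary; inhibition was read as reduced fluorescence intensity.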

[3] = Homo sapiens, PC-3, Table 3-1, PC3 cells
[4] = Homo sapiens, PC-3, PC3 cells, compound treatment ninety minutes at 37° C.
[5] = Homo sapiens, PC-3, Table 7-8, PC3 cells
[6] = PC3 cells, compound treatment ninety minutes at 37° C.

Row | Molecule | IC50 [1, 3] [nM] | IC50 [2, 3] [nM] | IC50 [1, 4] [nM] | IC50 [2, 4] [nM] | other results
1 | COc1c(F)cc(-c2ccc(-c3cnn4c(N)c(S(C)(=O)=O)c([C@@H]5C[C@H]6CC[C@@H](C5)N6C(=O)c5nnc[nH]5)nc34)cn2)cc1F [Compound 3.49, ((1R,3s,5S)-3-(7-amino-3-(6-(3,5-difluoro-4-methoxyphenyl)pyridin-3-yl)-6-(methylsulfonyl)pyrazolo[1,5-a]pyrimidin-5-yl)-8-azabicyclo[3.2.1]octan-8-yl)(4H-1,2,4-triazol-3-yl)methanone] | 100 to 1000 | 100 to 1000 |  |  | 
2 | CS(=O)(=O)c1c([C@@H]2C[C@H]3CC[C@@H](C2)N3C(=O)c2nnc[nH]2)nc2c(-c3ccc(-c4ccc(F)cc4F)nc3)cnn2c1N [Compound 3.108, ((1R,3s,5S)-3-(7-amino-3-(6-(2,4-difluorophenyl)pyridin-3-yl)-6-(methylsulfonyl)pyrazolo[1,5-a]pyrimidin-5-yl)-8-azabicyclo[3.2.1]octan-8-yl)(4H-1,2,4-triazol-3-yl)methanone] | 1 to 100 | 1 to 100 |  |  | 
3 | COc1ccc(-c2ccc(-c3cnn4c(N)c(C(C)=O)c([C@@H]5C[C@H]6CC[C@@H](C5)N6C(=O)CO)nc34)cn2)cc1CO [Compound 1.1.36, 1-((1R,3s,5S)-3-(6-acetyl-7-amino-3-(6-(3-(hydroxymethyl)-4-methoxyphenyl)pyridin-3-yl)pyrazolo[1,5-a]pyrimidin-5-yl)-8-azabicyclo[3.2.1]octan-8-yl)-2-hydroxyethanone] |  |  | 1 to 100 | 1 to 100 | 
4 | CCNC(=O)N1[C@@H]2CC[C@H]1C[C@H](c1nc3c(-c4ccc(-c5ccccc5F)nc4)cnn3c(N)c1S(C)(=O)=O)C2 [Compound 3.130, (1R,3s,5S)-3-(7-amino-3-(6-(2-fluorophenyl)pyridin-3-yl)-6-(methylsulfonyl)pyrazolo[1,5-a]pyrimidin-5-yl)-N-ethyl-8-azabicyclo[3.2.1]octane-8-carboxamide] | 100 to 1000 | 100 to 1000 |  |  | 
5 | CS(=O)(=O)c1c([C@@H]2C[C@H]3CC[C@@H](C2)N3C#N)nc2c(-c3ccc(-c4ccccc4)nc3)cnn2c1N [Compound 8.70, (1R,3s,5S)-3-(7-amino-6-(methylsulfonyl)-3-(6-phenylpyridin-3-yl)pyrazolo[1,5-a]pyrimidin-5-yl)-8-azabicyclo[3.2.1]octane-8-carbonitrile] |  |  |  |  | IC50 ([1]; Homo sapiens, PC-3, PC3 cells): 1000 to 10000 nM; IC50 ([2]; Homo sapiens, PC-3, PC3 cells): 100 to 1000 nM
6 | CS(=O)(=O)c1c([C@H]2CC3CC[C@H](C2)N3C(=O)c2nnc[nH]2)nc2c(-c3ccc(C4CCCCC4)nc3)cnn2c1N [Compound 3.165, ((1R,3s,5S)-3-(7-amino-3-(6-cyclohexylpyridin-3-yl)-6-(methylsulfonyl)pyrazolo[1,5-a]pyrimidin-5-yl)-8-azabicyclo[3.2.1]octan-8-yl)(4H-1,2,4-triazol-3-yl)methanone] | 100 to 1000 | 100 to 1000 |  |  | 
7 | CS(=O)(=O)c1c([C@@H]2C[C@H]3CC[C@@H](C2)N3C(=O)c2nnc[nH]2)nc2c(-c3ccc(-c4cccc(F)c4F)nc3)cnn2c1N [Compound 3.47, ((1R,3s,5S)-3-(7-amino-3-(6-(2,3-difluorophenyl)pyridin-3-yl)-6-(methylsulfonyl)pyazolo[1,5-a]pyrimidin-5-yl)-8-azabicyclo[3.2.1]octan-8-yl)(4H-1,2,4-triazol-3-yl)methanone] | 1 to 100 | 1 to 100 |  |  | 
8 | CC(=O)c1c([C@@H]2C[C@H]3CC[C@@H](C2)N3C(=O)N2CCOCC2)nc2c(-c3ccc(-c4ccccc4)nc3)cnn2c1N [Compound 1.1.122, 1-(7-amino-5-((1R,3s,5S)-8-(morpholine-4-carbonyl)-8-azabicyclo[3.2.1]octan-3-yl)-3-(6-phenylpyridin-3-yl)pyrazolo[1,5-a]pyrimidin-6-yl)ethanone] |  |  | 1000 to 10000 | 1000 to 10000 | 
9 | CS(=O)(=O)c1c(C2CC3COCC(C2)N3C(=O)c2nc[nH]n2)nc2c(-c3ccc(-c4ccccc4)nc3)cnn2c1N (stereo not shown) [Compound 8.29, (7-(7-amino-6-(methylsulfonyl)-3-(6-phenylpyridin-3-yl)pyrazolo[1,5-a]pyrimidin-5-yl)-3-oxa-9-azabicyclo[3.3.1]nonan-9-yl)(1H-1,2,4-triazol-3-yl)methanone] |  |  |  |  | IC50 ([1]; Homo sapiens, PC-3, PC3 cells): 1 to 100 nM; IC50 ([2]; Homo sapiens, PC-3, PC3 cells): 1 to 100 nM
10 | [2H]C1(O)CCCc2cc(-c3cnn4c(N)c(C5CC5)c([C@H]5CC6CC[C@H](C5)N6C(=O)c5nnc[nH]5)nc34)cnc21 (stereo partly drawn) [Compound 7.56, DEUTERATED-(3- EXO)-3-[7-AMINO-6- CYCLOPROPYL-3- (5,6,7,8- TETRAHYDRO-8- HYDROXY-3- QUINOLINYL- (D))PYRAZOLO[1,5- a]PYRIMIDIN-5-YL]-8- (4H-1,2,4-TRIAZOL-3- YLCARBONYL)-8- AZABICYCLO[3.2.1] OCTANE] |  |  |  |  | IC50 ([1]; Homo sapiens, PC-3, PC3 cells): 1 to 100 nM; IC50 ([2]; Homo sapiens, PC-3, PC3 cells): 1 to 100 nM
11 | CC(=O)c1c([C@@H]2C[C@H]3CC[C@@H](C2)N3C(=O)c2nnc[nH]2)nc2c(-c3cnc(NC4CC4)nc3)cnn2c1N [Compound 8.49, 1-(5-((1R,3s,5S)-8-(4H-1,2,4-triazole-3-carbonyl)-8-azabicyclo[3.2.1]octan-3-yl)-7-amino-3-(2-(cyclopropylamino)pyrimidin-5-yl)pyrazolo[1,5-a]pyrimidin-6-yl)ethanone] |  |  |  |  | IC50 ([1]; PC3 cells): 1 to 100 nM; IC50 ([2]; PC3 cells): 1 to 100 nM
12 | CC(=O)c1c([C@@H]2C[C@H]3CC[C@@H](C2)N3C(=O)c2nnc[nH]2)nc2c(-c3cnc(-c4cc[nH]n4)c(F)c3)cnn2c1N [Compound 1.1.110, 1-(5-((1R,3s,5S)-8-(4H-1,2,4-triazole-3-carbonyl)-8-azabicyclo[3.2.1]octan-3-yl)-7-amino-3-(5-fluoro-6-(1H-pyrazol-3-yl)pyridin-3-yl)pyrazolo[1,5-a]pyrimidin-6-yl)ethanone] |  |  | 100 to 1000 | 100 to 1000 | 
13 | CS(=O)(=O)c1c([C@@H]2C[C@H]3CC[C@@H](C2)N3C(=O)c2nnc[nH]2)nc2c(-c3ccc(C4(O)COC4)nc3)cnn2c1N [Compound 7.48, ((1R,3s,5S)-3-(7-amino-3-(6-(3-hydroxyoxetan-3-yl)pyridin-3-yl)-6-(methylsulfonyl)pyrazolo [1,5-a]pyrimidin-5-yl)-8-azabicyclo[3.2.1]octan-8-yl)(4H-1,2,4-triazol-3-yl)methanone] |  |  |  |  | IC50 [1, 5]: 1000 to 10000 nM; IC50 [2, 5]: 1000 to 10000 nM
14 | COCCOc1ccc(-c2ccc(-c3cnn4c(N)c(S(C)(=O)=O)c([C@@H]5C[C@H]6CC[C@@H](C5)N6C(=O)c5nnc[nH]5)nc34)cn2)cc1 [Compound 3.56, ((1R,3s,5S)-3-(7-amino-3-(6-(4-(2-methoxyethoxy)phenyl)pyridin-3-yl)-6-(methylsulfonyl)pyrazolo[1,5-a]pyrimidin-5-yl)-8-azabicyclo[3.2.1]octan-8-yl)(4H-1,2,4-triazol-3-yl)methanone] | 100 to 1000 | 100 to 1000 |  |  | 
15 | CC(=O)c1c([C@@H]2C[C@H]3CC[C@@H](C2)N3C(=O)c2nnc[nH]2)nc2c(-c3ccc(-c4cccc(F)c4)nc3)cnn2c1N [Compound 1.1.103, 1-(5-((1R,3r,5S)-8-(4H-1,2,4-triazole-3-carbonyl)-8-azabicyclo[3.2.1]octan-3-yl)-7-amino-3-(6-(3-fluorophenyl)pyridin-3-yl)pyrazolo[1,5-a]pyrimidin-6-yl)ethanone] |  |  | 1 to 100 | 1 to 100 | 
16 | CC(=O)c1c([C@@H]2C[C@H]3CC[C@@H](C2)N3C(=O)c2nnc[nH]2)nc2c(-c3ccc(-c4ccccc4F)nc3)cnn2c1N [Compound 1.1.145, 1-(5-((1R,3s,5S)-8-(4H-1,2,4-triazole-3-carbonyl)-8-azabicyclo[3.2.1]octan-3-yl)-7-amino-3-(6-(2-fluorophenyl)pyridin-3-yl)pyrazolo[1,5-a]pyrimidin-6-yl)ethanone] |  |  | 1 to 100 | 1 to 100 | 
17 | Nc1c(C2CC2)c([C@@H]2C[C@H]3CC[C@@H](C2)N3C(=O)NCCO)nc2c(-c3ccc(-c4ccccc4)nc3)cnn12 [Compound 4.8, (1R,3s,5S)-3-(7-amino-6-cyclopropyl-3-(6-phenylpyridin-3-yl)pyrazolo[1,5-a]pyrimidin-5-yl)-N-(2-hydroxyethyl)-8-azabicyclo[3.2.1]octane-8-carboxamide] |  |  | 100 to 1000 | 1 to 100 | 
18 | CS(=O)(=O)c1c([C@@H]2C[C@H]3CC[C@@H](C2)N3C(=O)c2nnc[nH]2)nc2c(-c3ccc(OCC4CC4)nc3)cnn2c1N [Compound 8.54, ((1R,3s,5S)-3-(7-amino-3-(6-(cyclopropylmethoxy)pyridin-3-yl)-6-(methylsulfonyl)pyrazolo[1,5-a]pyrimidin-5-yl)-8-azabicyclo[3.2.1]octan-8-yl)(4H-1,2,4-triazol-3-yl)methanone] |  |  |  |  | IC50 ([1]; Homo sapiens, PC-3, PC3 cells): > 10000 nM; IC50 ([2]; Homo sapiens, PC-3, PC3 cells): > 10000 nM
19 | Nc1c(Br)c([C@@H]2C[C@H]3CC[C@@H](C2)N3C(=O)c2nnc[nH]2)nc2c(-c3ccc(C4(O)CCC4)nc3)cnn12 [Compound 7.42, ((1R,3s,5S)-3-(7-amino-6-bromo-3-(6-(1-hydroxycyclobutyl)pyridin-3-yl)pyrazolo[1,5-a]pyrimidin-5-yl)-8-azabicyclo[3.2.1]octan-8-yl)(4H-1,2,4-triazol-3-yl)methanone] |  |  |  |  | IC50 [1, 5]: 100 to 1000 nM; IC50 [2, 5]: 1000 to 10000 nM
20 | 1-((1R,3s,5S)-3-(6-acetyl-7-amino-3-(6-(fluoromethyl)pyridin-3-yl)pyrazolo[1,5-a]pyrimidin-5-yl)-8-azabicyclo[3.2.1]octan-8-yl)-2-hydroxyethanone [Compound 1.1.92] |  |  |  |  | IC50 [1, 6]: 1 to 100 nM; IC50 [2, 6]: 1 to 100 nM
